Reference: US20250144067A1, “PERSONALIZED STARVATION THERAPY FOR CANCER” (Faeth Therapeutics, Inc., priority 2021, published 2025)
Where a name gives a salt, the structure may show the parent alone. Read-outs that look alike come from different tables or passages of the source.

What was measured:
[1] = system: NCI-H292 lung cancer cells; test: FDA drug screening, complete media vs cholesterol-free media without statin (TABLE 1); format: cell-based, human
[2] = system: NCI-H292 lung cancer cells; test: FDA drug screening, complete media vs cholesterol-free media with simvastatin (TABLE 2); format: cell-based, human
[3] = Complete minus Cholesterol-free, >0 enhanced anti-cancer activity, about 0 neutral, <0 antagonist
[4] = NCI-H292 cells, cholesterol-free media without statin, FDA drug library screen
[5] = NCI-H292 cells, complete media, FDA drug library screen
[6] = NCI-H292 cells, drug in cholesterol-free media with simvastatin 0.04 μM
[7] = complete media vs cholesterol-free media + simvastatin (0.04 μM), >0 enhanced anti-cancer activity, about 0 neutral, <0 antagonist
[8] = NCI-H292 cells, cholesterol-free media with simvastatin 0.04 μM, FDA drug library screen (TABLE 2)
[9] = NCI-H292 cells, complete media, FDA drug library screen (TABLE 2)
[10] = complete media minus cholesterol-free media + simvastatin (0.04 μM), >0 enhanced anti-cancer activity, about 0 neutral, <0 antagonist
[11] = NCI-H292 cells, cholesterol-free media without statin
[12] = complete vs cholesterol-free media, greater than 0 enhanced anti-cancer activity, about 0 neutral, below 0 antagonists
[13] = NCI-H292 cells, drug in complete media
[14] = NCI-H292 cells, FDA drug library screen, cholesterol-free media with simvastatin 0.04 μM
[15] = NCI-H292 cells, FDA drug library screen, complete media
[16] = Complete minus Cholesterol-free, greater than 0 enhanced anti-cancer activity, about 0 neutral, below 0 antagonists
[17] = NCI-H292 cells in complete media
[18] = Complete minus Cholesterol-free, greater than 0 enhanced anti-cancer activity, about 0 neutral, below 0 antagonist
[19] = NCI-H292 cells, FDA drug library screen, cholesterol-free media without statin
[20] = complete media minus cholesterol-free media + simvastatin, >0 enhanced anti-cancer activity, about 0 neutral, <0 antagonist
[21] = NCI-H292 cells in cholesterol-free media without statin
[22] = NCI-H292 cells, cholesterol-free media with simvastatin 0.04 μM, cell growth value in FDA drug screen
[23] = NCI-H292 cells, complete media, cell growth value in FDA drug screen
[24] = complete vs cholesterol-free media, >0 enhanced anti-cancer activity, about 0 neutral, <0 antagonist

Compound: O=c1[nH]ccc2c(S(=O)(=O)N3CCCNCC3)cccc12 [Hydroxyfasudil]
- Cholesterol-free [1]: 0.944
- Complete [1]: 1.011
- Difference [1]: 0.07
- Cholesterol-free media + simvastatin (0.04 μM) [2]: 0.9404
- Complete Media [2]: 0.8562
- Difference [2]: −0.08

Compound: CC(C)(O/N=C(\C(=O)N[C@@H]1C(=O)N2C(C(=O)[O-])=C(C[n+]3ccccc3)CS[C@H]12)c1csc(N)n1)C(=O)O [Ceftazidime]
- Difference [1, 3]: −0.05
- Cholesterol-free [1, 4]: 0.9478
- Complete [1, 5]: 0.8943
- Cholesterol-free media + simvastatin (0.04 μM) [2, 6]: 1.391
- Difference [2, 7]: −0.24

Compound: CC[C@@]1(O)C(=O)OCc2c1cc1n(c2=O)Cc2c-1nc1ccccc1c2CCNC(C)C [Belotecan (hydrochloride)]
- Difference [1, 3]: 0.00
- Cholesterol-free [1, 4]: 0.00566
- Complete [1, 5]: 0.01027
- Cholesterol-free media + simvastatin (0.04 μM) [2, 8]: −0.0005237
- Complete Media [2, 9]: 0.007701
- Difference [2, 10]: 0.01

Compound: Nc1ccncc1N [Amifampridine]
- Cholesterol-free [1, 11]: 1.476
- Complete ([1]; NCI-H292 cells, complete media): 1.141
- Difference [1, 12]: −0.33
- Cholesterol-free media + simvastatin (0.04 μM) [2, 6]: 1.299
- Complete Media [2, 13]: 1.071
- Difference [2, 7]: −0.23

Compound: Cc1ncc([N+](=O)[O-])n1CC(O)CN1CCOCC1 (stereo not drawn) [Morinidazole (R enantiomer)]
- Difference [1, 3]: −0.04
- Cholesterol-free [1, 4]: 1.104
- Complete [1, 5]: 1.064
- Cholesterol-free media + simvastatin (0.04 μM) [2, 14]: 1.178
- Complete Media [2, 15]: 1.022
- Difference [2, 7]: −0.16

Compound: CC[C@@]1(O)C(=O)OCc2c1cc1n(c2=O)Cc2cc3cc(O)ccc3nc2-1 [(S)-10-Hydroxycamptothecin]
- Difference ([1]; Complete minus Cholesterol-free, […]): 0.01
- Cholesterol-free [1, 4]: 0.01962
- Complete [1, 5]: 0.02742
- Cholesterol-free media + simvastatin (0.04 μM) [2, 14]: 0.2337
- Complete Media [2, 15]: 0.138
- Difference ([2]; complete media vs cholesterol-free media + simvastatin (0.04 μM), […]): −0.10

Compound: OC(CCN1CCCCC1)(c1ccccc1)C1CCCCC1 (stereo not shown) [Trihexyphenidyl (hydrochloride)]
- Cholesterol-free [1, 11]: 1.407
- Complete ([1]; NCI-H292 cells, complete media): 0.9676
- Difference [1, 12]: −0.44
- Cholesterol-free media + simvastatin (0.04 μM) [2, 6]: 0.9099
- Complete Media [2, 13]: 0.6915
- Difference [2, 7]: −0.22

Compound: CN1C2CCCC1CC(NC(=O)c1nn(C)c3ccccc13)C2 (stereo not shown) [Granisetron (Hydrochloride)]
- Difference [1, 3]: −0.26
- Cholesterol-free [1, 11]: 1.123
- Complete ([1]; NCI-H292 cells, complete media): 0.8639
- Cholesterol-free media + simvastatin (0.04 μM) [2, 8]: 0.8994
- Complete Media [2, 9]: 0.8536
- Difference [2, 10]: −0.05

Compound: O=C1C(CC[S+]([O-])c2ccccc2)C(=O)N(c2ccccc2)N1c1ccccc1 (stereo not shown) [Sulfinpyrazone]
- Cholesterol-free [1, 11]: 1.3
- Complete ([1]; NCI-H292 cells, complete media): 0.9417
- Difference [1, 12]: −0.36
- Cholesterol-free media + simvastatin (0.04 μM) [2, 6]: 1.076
- Complete Media [2, 13]: 0.9093
- Difference [2, 7]: −0.17

Compound: NS(=O)(=O)Cc1noc2ccccc12 [Zonisamide]
- Difference [1, 16]: −0.51
- Complete [1, 17]: 1.109
- Cholesterol-free media + simvastatin (0.04 μM) [2, 6]: 1.285
- Complete Media [2, 13]: 1.066
- Difference [2, 7]: −0.22

Compound: CCN(CC)C(=O)c1cccnc1 [Nikethamide]
- Difference [1, 18]: −0.18
- Cholesterol-free [1, 19]: 1.071
- Complete [1, 15]: 0.8953
- Cholesterol-free media + simvastatin (0.04 μM) [2, 14]: −0.004932
- Complete Media [2, 15]: 1.43
- Difference [2, 20]: 1.44

Compound: C[C@H](Cn1cnc2c(N)ncnc21)OCP(=O)(O)O [Tenofovir]
- Difference [1, 16]: −0.62
- Cholesterol-free [1, 21]: 1.637
- Complete [1, 17]: 1.013
- Cholesterol-free media + simvastatin (0.04 μM) [2, 14]: 0.8374
- Complete Media [2, 15]: 1.066
- Difference [2, 20]: 0.23

Compound: O=C(c1ccc(F)cc1)C1CCN(CCn2c(=O)[nH]c3ccccc3c2=O)CC1 [Ketanserin]
- Difference [1, 16]: −0.47
- Cholesterol-free [1, 21]: 1.183
- Complete [1, 17]: 0.7093
- Cholesterol-free media + simvastatin (0.04 μM) [2, 22]: 1.439
- Complete Media [2, 23]: 1.462
- Difference [2, 20]: 0.02

Compound: C[C@H]1[C@H](NC(=O)/C(=N\OC(C)(C)C(=O)O)c2csc(N)n2)C(=O)N1S(=O)(=O)O [Aztreonam]
- Difference [1, 3]: −0.20
- Cholesterol-free [1, 11]: 1.093
- Complete ([1]; NCI-H292 cells, complete media): 0.892
- Cholesterol-free media + simvastatin (0.04 μM) [2, 6]: 1.706
- Complete Media [2, 13]: 1.446
- Difference [2, 7]: −0.26

Compound: CCO/N=C(\C(=O)N[C@@H]1C(=O)N2C(C(=O)[O-])=C(Sc3nc(-c4cc[n+](C)cc4)cs3)CS[C@H]12)c1nsc(NP(=O)(O)O)n1 [Ceftaroline fosamil]
- Difference [1, 16]: −0.71
- Cholesterol-free [1, 21]: 1.53
- Complete [1, 17]: 0.8244
- Cholesterol-free media + simvastatin (0.04 μM) [2, 14]: 1.027
- Complete Media [2, 15]: 0.9313
- Difference [2, 7]: −0.10

Compound: O=C(O[C@H]1CN2CCC1CC2)N1CCc2ccccc2[C@@H]1c1ccccc1 [Solifenacin (hydrochloride)]
- Cholesterol-free [1, 11]: 1.128
- Complete ([1]; NCI-H292 cells, complete media): 0.8222
- Difference [1, 12]: −0.31
- Cholesterol-free media + simvastatin (0.04 μM) [2, 22]: 0.865
- Complete Media [2, 23]: 0.978
- Difference [2, 20]: 0.11

Compound: CC(C)=CCOc1ccc(/C=C/C(=O)c2ccc(OCC=C(C)C)cc2OCC(=O)O)cc1 [Sofalcone]
- Difference [1, 18]: −0.07
- Cholesterol-free [1, 19]: 0.9203
- Complete [1, 15]: 0.8453
- Cholesterol-free media + simvastatin (0.04 μM) [2, 8]: 0.8486
- Complete Media [2, 9]: 0.7952
- Difference [2, 10]: −0.05

Compound: O=C(O)CCCN1CCC(O[C@@H](c2ccc(Cl)cc2)c2ccccn2)CC1 [Bepotastine]
- Cholesterol-free [1, 4]: 0.9809
- Complete [1, 5]: 1.256
- Difference [1, 24]: 0.28
- Cholesterol-free media + simvastatin (0.04 μM) [2, 6]: 0.9667
- Complete Media [2, 13]: 0.7639
- Difference [2, 7]: −0.20

Compound: COC1=C(OC)C(=O)C(CCCCCCCCCCO)=C(C)C1=O [Idebenone]
- Difference [1, 3]: −0.21
- Cholesterol-free [1, 11]: 1.239
- Complete ([1]; NCI-H292 cells, complete media): 1.029
- Cholesterol-free media + simvastatin (0.04 μM) [2, 22]: 1.049
- Complete Media [2, 23]: 1.125
- Difference [2, 20]: 0.08

Compound: C=C1CC[C@H](O)C/C1=C/C=C1\CCC[C@]2(C)[C@@H]([C@H](C)CCCC(C)(C)O)CC[C@@H]12 [Calcifediol]
- Difference [1, 16]: −0.53
- Cholesterol-free [1, 21]: 1.425
- Complete [1, 17]: 0.8976
- Cholesterol-free media + simvastatin (0.04 μM) [2, 6]: 1.216
- Complete Media [2, 13]: 1.052
- Difference [2, 7]: −0.16

Compound: CCOC(=O)[C@H](CCc1ccccc1)N[C@@H](C)C(=O)N1C(=O)N(C)C[C@H]1C(=O)O [Imidapril (hydrochloride)]
- Cholesterol-free [1, 4]: 0.9489
- Complete [1, 5]: 1.458
- Difference [1, 24]: 0.51
- Cholesterol-free media + simvastatin (0.04 μM) ([2]; NCI-H292 cells, FDA library drug in cholesterol-free media with simvastatin 0.04 μM): 1.282
- Complete Media ([2]; NCI-H292 cells, FDA library drug in complete media): 0.8523
- Difference [2, 7]: −0.43

Compound: O=C(OCC(O)CO)c1ccccc1Nc1ccnc2cc(Cl)ccc12 (stereo not shown) [Glafenine (hydrochloride)]
- Cholesterol-free [1]: 1.367
- Complete [1]: 1.255
- Difference [1]: −0.11
- Cholesterol-free media + simvastatin (0.04 μM) [2]: 0.8957
- Complete Media [2]: 0.9245
- Difference [2]: 0.03
